Our source for the IC50 values is patent publication US20260055079A1, “PHTHALAZINONE COMPOUNDS AS PARP7 INHIBITORS” (AZKARRA THERAPEUTICS, INC., priority 2022, published 2026).

pIC50: −log10 of the molar value. Some results are limits rather than exact numbers.

One assay deals with His-GST-PARP7 (Homo sapiens (Human), UniProt Q7Z3E1). Description: PARP7 biochemical assay.
His-GST-PARP7, sequence (Q7Z3E1 whole entry): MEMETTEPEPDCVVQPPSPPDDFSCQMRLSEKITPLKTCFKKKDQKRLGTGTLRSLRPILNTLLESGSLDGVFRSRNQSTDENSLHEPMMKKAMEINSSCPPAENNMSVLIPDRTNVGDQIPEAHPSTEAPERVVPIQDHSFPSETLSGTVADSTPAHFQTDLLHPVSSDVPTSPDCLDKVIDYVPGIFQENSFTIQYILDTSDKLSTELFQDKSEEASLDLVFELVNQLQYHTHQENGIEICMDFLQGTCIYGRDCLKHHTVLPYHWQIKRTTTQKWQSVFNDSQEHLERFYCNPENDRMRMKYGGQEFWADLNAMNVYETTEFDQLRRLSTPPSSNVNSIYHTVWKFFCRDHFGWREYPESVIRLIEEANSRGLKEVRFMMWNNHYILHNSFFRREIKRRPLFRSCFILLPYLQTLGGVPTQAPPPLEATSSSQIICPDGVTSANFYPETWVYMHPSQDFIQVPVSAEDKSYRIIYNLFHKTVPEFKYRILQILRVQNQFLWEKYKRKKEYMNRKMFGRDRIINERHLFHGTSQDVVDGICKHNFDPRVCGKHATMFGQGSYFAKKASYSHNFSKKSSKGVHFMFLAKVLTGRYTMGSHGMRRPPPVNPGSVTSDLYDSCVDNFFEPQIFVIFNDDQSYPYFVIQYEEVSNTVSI
Conditions: not given
`O=C(C1CC1)N1C[C@H]2CC[C@@H](C1)N2C(=O)c1cc(Cc2n[nH]c(=O)c3ccc(OC4CCC4)cc23)ccc1F` [Example 112, 6-Cyclobutoxy-4-(3-(3-(cyclopropanecarbonyl)-3,8-diazabicyclo[3.2.1]octane-8-carbonyl)-4-fluorobenzyl)phthalazin-1(2H)-one] showed a negative-log IC50 (pIC50) of 6.30 to 7.00.

The same assay, now with this note: read-out: PARP7 IC50.
Regarding `N#Cc1ccc(N2C[C@H]3CC[C@@H](C2)N3C(=O)c2cc(Cc3n[nH]c(=O)c4ccc(OC5CCC5)cc34)ccc2F)nc1` [Example 96, 6-(8-(5-((7-Cyclobutoxy-4-oxo-3,4-dihydrophthalazin-1-yl)methyl)-2-fluorobenzoyl)-3,8-diazabicyclo[3.2.1]octan-3-yl)nicotinonitrile], the negative logarithm of the IC50 (pIC50) was greater than 7.30. Same read-out and setting: the figure for `N#Cc1ccc(N2CC(NC(=O)c3cc(Cc4n[nH]c(=O)c5ccc(OC6CCC6)cc45)ccc3F)C2)nc1` [Example 204, N-(1-(5-Cyanopyridin-2-yl)azetidin-3-yl)-5-((7-cyclobutoxy-4-oxo-3,4-dihydrophthalazin-1-yl)methyl)-2-fluorobenzamide] is less than 5.70. In the case of “4-(4-Fluoro-3-(4-(5-(trifluoromethyl)pyrimidin-2-yl)piperazine-1-carbonyl)benzyl)-6-(3,3,3-trifluoroprop-1-yn-1-yl)phthalazin-1(2H)-one [Example 42]”, the negative-log IC50 (pIC50) is 5.70 to 6.30. Regarding `O=C(c1cccc(Cc2n[nH]c(=O)c3ccc(OC4CCC4)cc23)c1Cl)N1CCN(c2ncc(C(F)(F)F)cn2)CC1` [Example 171, 4-(2-Chloro-3-(4-(5-(trifluoromethyl)pyrimidin-2-yl)piperazine-1-carbonyl)benzyl)-6-cyclobutoxyphthalazin-1(2H)-one], the pIC50 was 7.00 to 7.30. Take `O=C(c1cc(Cc2n[nH]c(=O)c3ccc(OC4CCC4)cc23)ccc1F)N1CCC2C1CCN2C(=O)C1CC1` (centres unmarked) [Example 109, 6-cyclobutoxy-4-(3-(4-(cyclopropanecarbonyl)octahydropyrrolo[3,2-b]pyrrole-1-carbonyl)-4-fluorobenzyl)phthalazin-1(2H)-one]: the negative logarithm of the IC50 (pIC50) is 6.30 to 7.00. `N#Cc1ccc(N2CCC3C2CCN3C(=O)c2cc(Cc3n[nH]c(=O)c4ccc(OC5CCC5)cc34)ccc2F)nc1` (centres unmarked) [Example 111, 6-(4-(5-((7-Cyclobutoxy-4-oxo-3,4-dihydrophthalazin-1-yl)methyl)-2-fluorobenzoyl)hexahydropyrrolo[3,2-b]pyrrol-1(2H)-yl)nicotinonitrile]: the negative logarithm of the IC50 (pIC50) was 6.30 to 7.00. Turning to `CC#Cc1ccc2c(=O)[nH]nc(Cc3ccc(F)c(C(=O)N4CCn5c(nnc5-c5ccccc5CC)C4)c3)c2c1` [Example 59, 4-(3-(3-(2-Ethylphenyl)-5,6,7,8-tetrahydro-[1,2,4]triazolo[4,3-a]pyrazine-7-carbonyl)-4-fluorobenzyl)-6-(prop-1-ynyl)phthalazin-1(2H)-one], the pIC50 is 6.30 to 7.00.

For `CC#Cc1ccc2c(=O)[nH]nc(Cc3ccc4c(c3)C(=O)N(CCN(CC)c3ccc(C#N)cn3)C4)c2c1` [Example 75, 6-(Ethyl(2-(1-oxo-6-((4-oxo-7-(prop-1-ynyl)-3,4-dihydrophthalazin-1-yl)methyl)isoindolin-2-yl)ethyl)amino)nicotinonitrile], the negative-log IC50 (pIC50) was less than 5.70. Regarding `[2H]C([2H])(c1ccc(F)c(C(=O)N2CCN(c3ccc(C#N)cn3)CC2)c1)c1n[nH]c(=O)c2ccc(C#CC)cc12` [Example 73, 6-(4-(2-Fluoro-5-((4-oxo-7-(prop-1-yn-1-yl)-3,4-dihydrophthalazin-1-yl)methyl-d2)benzoyl)piperazin-1-yl)nicotinonitrile], the pIC50 is greater than 7.30. In the case of `CC#Cc1ccc2c(=O)[nH]nc(Cc3ccc(F)c(C#N)c3)c2c1` [Example 76, 2-Fluoro-5-((4-oxo-7-(prop-1-yn-1-yl)-3,4-dihydrophthalazin-1-yl)methyl)benzonitrile], the pIC50 is less than 5.70. Regarding `CN(C(=O)CCC(F)(F)F)C1CN(C(=O)c2cc(Cc3n[nH]c(=O)c4ccc(OC5CCC5)cc34)ccc2F)C1` [Example 114, N-(1-(5-((7-cyclobutoxy-4-oxo-3,4-dihydrophthalazin-1-yl)methyl)-2-fluorobenzoyl)azetidin-3-yl)-4,4,4-trifluoro-N-methylbutanamide], the pIC50 was 6.30 to 7.00.

`Cc1cccc(Oc2ccc3c(=O)[nH]nc(Cc4ccc(F)c(C(=O)N5CCN(c6ccc(C#N)cn6)CC5)c4)c3c2)c1` [Example 90, 6-(4-(2-fluoro-5-((4-oxo-7-(m-tolyloxy)-3,4-dihydrophthalazin-1-yl)methyl)benzoyl)piperazin-1-yl)nicotinonitrile]: the pIC50 was greater than 7.30. Turning to `O=C(NC1CN(C(=O)c2cc(Cc3n[nH]c(=O)c4ccc(OC5CCC5)cc34)ccc2F)C1)C1CC1` [Example 113, N-(1-(5-((7-Cyclobutoxy-4-oxo-3,4-dihydrophthalazin-1-yl)methyl)-2-fluorobenzoyl)azetidin-3-yl)cyclopropanecarboxamide], the pIC50 was 6.30 to 7.00.

As to `Cc1cnc(N(C)C2CN(C(=O)c3cc(Cc4n[nH]c(=O)c5ccc(OC6CCC6)cc45)ccc3F)C2)n1C` [Example 110, 6-Cyclobutoxy-4-(3-(3-((1,5-dimethyl-1H-imidazol-2-yl)(methyl)amino)azetidine-1-carbonyl)-4-fluorobenzyl)phthalazin-1(2H)-one], the negative-log IC50 (pIC50) was 6.30 to 7.00. The same measure, in the same setting: the figure for `N#Cc1ccnc(NC2CN(C(=O)c3cc(Cc4n[nH]c(=O)c5ccc(OC6CCC6)cc45)ccc3F)C2)c1` [Example 106, 2-(1-(5-((7-Cyclobutoxy-4-oxo-3,4-dihydrophthalazin-1-yl)methyl)-2-fluorobenzoyl)azetidin-3-ylamino)isonicotinonitrile] is 6.30 to 7.00. As to `COc1c(Oc2ccccc2)ccc2c(=O)[nH]nc(Cc3ccc(F)c(C(=O)N4CCN(c5ccc(C#N)cn5)CC4)c3)c12` [Example 89, 6-(4-(2-Fluoro-5-((8-methoxy-4-oxo-7-phenoxy-3,4-dihydrophthalazin-1-yl)methyl)benzoyl)piperazin-1-yl)nicotinonitrile], the negative-log IC50 (pIC50) was 7.00 to 7.30. Still for that read-out and setting: the figure for `O=C(C1CC1)N1CCN(c2noc3c(Cc4n[nH]c(=O)c5ccc(OC6CCC6)cc45)cccc23)CC1` [Example 206, 6-Cyclobutoxy-4-((3-(4-(cyclopropanecarbonyl)piperazin-1-yl)benzo[d]isoxazol-7-yl)methyl)phthalazin-1(2H)-one] is 6.30 to 7.00; for `O=c1[nH]nc(Cc2ccc3c(N4CCN(c5ncc(C(F)(F)F)cn5)CC4)noc3c2)c2cc(OC3CCC3)ccc12` [Example 212, 6-Cyclobutoxy-4-((3-(4-(5-(trifluoromethyl)pyrimidin-2-yl)piperazin-1-yl)benzo[d]isoxazol-6-yl)methyl)phthalazin-1(2H)-one] it is less than 5.70. Turning to `CC#Cc1ccc2c(=O)[nH]nc(Cc3ccc(F)c(C(NCCN(CC)c4ccc(C#N)cn4)C(F)(F)F)c3)c2c1` (centres unmarked) [Example 78, 6-(Ethyl(2-((2,2,2-trifluoro-1-(2-fluoro-5-((4-oxo-7-(prop-1-yn-1-yl)-3,4-dihydrophthalazin-1-yl)methyl)phenyl)ethyl)amino)ethyl)amino)nicotinonitrile], the pIC50 is less than 5.70.

`O=C(c1cc(Cc2n[nH]c(=O)c3ccc(OC4CCC4)cc23)ccc1F)N1CCn2c(CF)nnc2C1` [Example 164, 6-Cyclobutoxy-4-(4-fluoro-3-(3-(fluoromethyl)-5,6,7,8-tetrahydro-[1,2,4]triazolo[4,3-a]pyrazine-7-carbonyl)benzyl)phthalazin-1(2H)-one]: the pIC50 was greater than 7.30. For `CC#Cc1ccc2c(=O)[nH]nc(Cc3ccc(F)c(C(=O)NC(C)c4nnc(C(F)(F)F)o4)c3)c2c1` (centres unmarked) [Example 200, 2-Fluoro-5-((4-oxo-7-(prop-1-ynyl)-3,4-dihydrophthalazin-1-yl)methyl)-N-(1-(5-(trifluoromethyl)-1,3,4-oxadiazol-2-yl)ethyl)benzamide], the negative-log IC50 (pIC50) is less than 5.70. On to `O=C(C1CC1)N1CCN(c2noc3ccc(Cc4n[nH]c(=O)c5ccc(OC6CCC6)cc45)cc23)CC1` [Example 210, 6-cyclobutoxy-4-((3-(4-(cyclopropanecarbonyl)piperazin-1-yl)benzo[d]isoxazol-5-yl)methyl)phthalazin-1(2H)-one], for which the pIC50 was 5.70 to 6.30.

On to `O=C(c1cc(Cc2n[nH]c(=O)c3ccc(OC4CCC4)cc23)ccc1F)N1CCn2c(CO)nnc2C1` [Example 166, 6-Cyclobutoxy-4-(4-fluoro-3-(3-(hydroxymethyl)-5,6,7,8-tetrahydro-[1,2,4]triazolo[4,3-a]pyrazine-7-carbonyl)benzyl)phthalazin-1(2H)-one], for which the pIC50 was greater than 7.30. As to `N#Cc1ccc(N2CCN(c3noc4cc(Cc5n[nH]c(=O)c6ccc(OC7CCC7)cc56)ccc34)CC2)nc1` [Example 214, 6-(4-(6-((7-Cyclobutoxy-4-oxo-3,4-dihydrophthalazin-1-yl)methyl)benzo[d]isoxazol-3-yl)piperazin-1-yl)nicotinonitrile], the negative logarithm of the IC50 (pIC50) was less than 5.70. Take `O=C(c1cccc(Cc2n[nH]c(=O)c3ccc(OC4CCC4)cc23)c1)N1CCN(c2ncc(C(F)(F)F)cn2)CC1` [Example 170, 6-cyclobutoxy-4-(3-(4-(5-(trifluoromethyl)pyrimidin-2-yl)piperazine-1-carbonyl)benzyl)phthalazin-1(2H)-one]: the negative logarithm of the IC50 (pIC50) is greater than 7.30. For the compound `CC#Cc1ccc2c(=O)[nH]nc(Cc3cc(C(=O)N4CCN(c5ccc(C#N)cn5)CC4)c(F)cc3F)c2c1` [Example 77, 6-(4-(2,4-Difluoro-5-((4-oxo-7-(prop-1-yn-1-yl)-3,4-dihydrophthalazin-1-yl)methyl)benzoyl)piperazin-1-yl)nicotinonitrile], the negative-log IC50 (pIC50) is greater than 7.30. On to `N#Cc1ccc(N2CCN(C(=O)c3cc(Cc4n[nH]c(=O)c5ccc(Oc6ccc7ccccc7c6)cc45)ccc3F)CC2)nc1` [Example 39, 6-(4-(2-Fluoro-5-((7-(naphthalen-2-yloxy)-4-oxo-3,4-dihydrophthalazin-1-yl)methyl)benzoyl)piperazin-1-yl)nicotinonitrile], for which the pIC50 was 7.00 to 7.30. The same measure, in the same setting: the figure for `COc1nnc2n1CCN(C(=O)c1cc(Cc3n[nH]c(=O)c4ccc(OC5CCC5)cc34)ccc1F)C2` [Example 165, 6-Cyclobutoxy-4-(4-fluoro-3-(3-methoxy-5,6,7,8-tetrahydro-[1,2,4]triazolo[4,3-a]pyrazine-7-carbonyl)benzyl)phthalazin-1(2H)-one] is greater than 7.30.

A word on the pIC50: it is the negative decadic logarithm of the IC50, by convention in mol/L.
